How the values were obtained:
hrCXCR2 = molecular target: T1, hrCXCR2 (Homo sapiens, UniProt P25025); experiment: Ligand binding assay ([125I]IL-8 displacement, HEK 293 membranes); settings: [125I]IL-8 binding to membranes of HEK 293 cells expressing hrCXCR2; 1.5 hours at room temperature
T1 construct: expressed in transfected cells; host or cells: HEK 293 cells (ECACC No. 85120602), membranes of the highest expressing clone
T1 sequence (P25025 1-360): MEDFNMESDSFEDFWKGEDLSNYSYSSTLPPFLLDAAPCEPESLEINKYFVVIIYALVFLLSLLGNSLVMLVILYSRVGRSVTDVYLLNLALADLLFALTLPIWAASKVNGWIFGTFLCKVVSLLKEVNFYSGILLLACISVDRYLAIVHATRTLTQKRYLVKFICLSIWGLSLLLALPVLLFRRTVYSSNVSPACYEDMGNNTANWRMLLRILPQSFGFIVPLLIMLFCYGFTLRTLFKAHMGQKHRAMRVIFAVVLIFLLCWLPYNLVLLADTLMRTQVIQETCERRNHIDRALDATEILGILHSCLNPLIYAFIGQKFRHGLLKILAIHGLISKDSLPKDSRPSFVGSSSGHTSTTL
Description: [^125I]IL-8 (human, recombinant) was purchased from Amersham, U.K. with a specific activity of 2,000 Ci/mmol. All other chemicals were of analytical grade. High levels of hrCXCR2 were expressed in HEK 293 cells (human embryo kidney 293 cells ECACC No. 85120602) (Lee et al. (1992) J. Biol. Chem. 267 pp 16283-16291). hrCXCR2 cDNA was amplified and cloned from human neutrophil mRNA. The DNA was cloned into PCRScript (Stratagene) and clones were identified using DNA. The coding sequence was sub-cloned into the eukaryotic expression vector RcCMV (Invitrogen). Plasmid DNA was prepared using Quiagen Megaprep 2500 and transfected into HEK 293 cells using Lipofectamine reagent (Ginbco BRL). Cells of the highest expressing clone were harvested in phosphate-buffered saline containing 0.2% (w/v) ethylenediaminetetraacetic acid (EDTA) and centrifuged (200 g, 5 min.). The cell pellet was resuspended in ice cold homogenisation buffer [[…] HEPES (pH 7.4), 1 mM dithiothreitol 1 mM EDTA and a panel of protease inhibitors (1 mM phenyl methyl sulphonyl fluoride, 2 μg/ml soybean trypsin inhibitor, 3 mM benzamidine, 0.5 μg/ml leupeptin and 100 μg/ml bacitracin)] and the cells left to swell for 10 minutes. […] The backing plate was removed from the MultiScreen plate assembly, the filters dried at room temperature, punched out and then counted on a Cobra γ-counter.

[1] = molecular target: T2, CXCR2 receptor in human neutrophils (Homo sapiens, UniProt P25025); experiment: Intracellular calcium mobilisation assay (GROα-stimulated, fluo-3, FLIPR); type: cell-based; settings: A50 concentration of GROα, fluo-3 fluorescence
T2 construct: Human neutrophils were prepared from EDTA-treated peripheral blood; endogenous in cells; host or cells: human neutrophils from peripheral blood
T2 sequence (P25025 1-360): T1 sequence (P25025 1-360)
Protocol: Intracellular Calcium Mobilisation Assay
Human neutrophils were prepared from EDTA-treated peripheral blood, as previously described (Baly et al. (1997) Methods in Enzymology 287 pp70-72), in storage buffer [Tyrode's salt solution (137 mM NaCl 2.7 mM KCl, 0.4 mM NaH2PO4) supplemented with 5.7 mM glucose and 10 mM HEPES (pH 7.4)].
The chemokine GROα (human, recombinant) was purchased from R&D Systems (Abingdon, U.K.). All other chemicals were of analytical grade. Changes in intracellular free calcium were measured fluorometrically by loading neutrophils with the calcium sensitive fluorescent dye, fluo-3, as described previously (Merritt et al. (1990) Biochem. J. 269, pp513-519). Cells were loaded for 1 hour at 37° C. in loading buffer (storage buffer with 0.1% (w/v) gelatin) containing 5 μM fluo-3 AM ester, washed with loading buffer and then resuspended in Tyrode's salt solution supplemented with 5.7 mM glucose, 0.1% (w/v) bovine serum albumin (BSA), 1.8 mM CaCl2 and 1 mM MgCl2. […]
A compound of formula (1) according to the Examples was pre-dissolved in DMSO and added to a final concentration of 0.1% (v/v) DMSO. Assays were initiated by the addition of an A50 concentration of GROα and the transient increase in fluo-3 fluorescence (λEx=490 nm and λEm=520 nm) monitored using a FLIPR (Fluorometric Imaging Plate Reader, Molecular Devices, Sunnyvale, U.S.A).

IC50 (hrCXCR2): < 10 µM | antagonism of the CXCR2 receptor (GROα-induced intracellular calcium increase) [1]: antagonist | melting point: 202 to 204 °C
Structure (SMILES): C[C@H](O)[C@H](CO)Nc1nc(SCc2cccc(F)c2F)nc2[nH]c(=O)sc12 [compound of formula (I), 5-[((2,3-difluorophenyl)methyl)thio]-7-{[(1S,2S)-2-hydroxy-1-(hydroxymethyl)propyl]amino}thiazolo[4,5-d]pyrimidin-2(3B)-one]
